In patent US5484803A, “Transcutaneous in vivo activation of photosensitive agents in blood” (priority 1995, dated 1996):

Legend:
virus-infected T cells = details: after exposure of BPD-treated, virus-infected T cells to light; cited from earlier work
[1] = Pharmacokinetic studies: BPD concentration in plasma; type: in vivo, Balb/c mice; details: for Plasma Conc.: liposomal BPD
Method: Determination of BPD Concentration in Plasma: Plasma samples were obtained by centrifugation of blood collected from mice and stored frozen at -20° C. until assessment. The concentration of BPD in the samples was determined by fluorometry using a Jasco Model FP-770 (Japan Spectroscopic Co.) spectrofluorometer and a microcuvette (Far UV Quartz Cell, Starna Cells Inc.). Excitation and emission wavelengths were 439 and 699 nm, respectively. Plasma samples were diluted 20-fold with PBS containing 1% Triton® X-100 immediately before fluorescence was determined. BPD standards were prepared in 5% mouse plasma in PBS with 1% Triton® X-100. Under these conditions the relationship between the concentration of BPD and units of fluorescence was linear (correlation coefficient >0.99) for concentrations between 0.1 ng/ml and 1 μg/ml. The limit of detection was below 0.1 ng/ml sample which corresponded to 2 ng/ml plasma. […] The 699 nm fluorescence peak of BPD was virtually free from any interference.
In order to determine the level of BPD in plasma during the light treatment, the following experiment was carried out. Fourteen Balb/c mice (22±1 g of weight) were injected with liposomal BPD at 20 μg/mouse (0.9 mg/kg) in 200 μl PBS per mouse. Blood samples were obtained by heart puncture at various time intervals between 15 min and 2 hours post-injection. Exposure to light started at 15 min post-injection for some mice. The BPD concentration in plasma was determined as described above.

benzoprophyrin derivative monoacid ring A [BPD]
effect on virus-infected T cell membrane (virus-infected T cells): holes developed in the T cell membrane, which increased in size until the membrane completely decomposed
plasma level of BPD at the beginning of exposure to light ([1]; 1 hour post-injection, as in Example 1, 0.9 mg/kg): about 4 μg/ml
Plasma Conc. ([1]; 0.83 mg/kg, 20 min post injection): 4680 ng/mL
Plasma Conc. ([1]; 0.83 mg/kg, 2 h 5 min post injection (text: 2 hours), 125 min): 2440 ng/mL
Plasma Conc. ([1]; 0.87 mg/kg, 15 min post injection): 6320 ng/mL
Plasma Conc. ([1]; 0.87 mg/kg, 1 h 38 min post injection, 98 min): 1800 ng/mL
Plasma Conc. ([1]; 0.87 mg/kg, 1 h 42 min post injection, 102 min): 3220 ng/mL
Plasma Conc. ([1]; 0.91 mg/kg, 1 h 24 min post injection, 84 min): 2920 ng/mL
Plasma Conc. ([1]; 0.91 mg/kg, 1 h 32 min post injection, 92 min): 2980 ng/mL
Plasma Conc. ([1]; 0.95 mg/kg, 1 h 23 min post injection, 83 min): 3260 ng/mL
